Data as given in patent US20240245702A1, “Inhibition of Lysine Demethylase 1 (Lsd1) Induces Differentiation of Hair Cells” (Massachusetts Eye and Ear Infirmary, priority 2018, published 2024).

What was measured:
[1] = test system: Atoh1; test: qRT-PCR of Atoh1 in adult cochlea after noise damage and drug treatment; format: in vivo, mouse; settings: deaf adult cochlea relative to the control, 3 days after treatment, p<0.05
Protocol: (§1) RNA extraction and PCR. For the LCPs, the organoids were treated with Cell Recovery Solution for at 1 hour and TrypleE for 20 minutes, then frozen in RLT buffer. RNA extractions were performed using the RNeasy Micro Kit (QIAGEN) and cDNA generated using ImProm-II Reverse Transcription Kit (Promega). TaqMan Real-Time PCR was performed in triplicates using the TaqMan Gene Expression Master Mix (ThermoFisher Scientific) on a StepOne Real-Time PCR machine (ThermoFisher Scientific). Ordinary One-way Anova was used to assess statistical significance. A minimum of three biologically distinct samples were analyzed for each condition.
(§2) Round window drug administration. We used four-week-old mice weighing 12-15 g. The animals were anesthetized with ketamine ([…], intraperitoneally [i.p.]) and xylazine ([…], i.p.) prior to surgery. An incision was made posterior to the pinna near the external meatus to expose the otic bulla and subsequently the round window niche. pargyline and CHIR99021 dissolved in DMSO were diluted in polyethylene glycol 400 (Sigma) to obtain final concentrations of 0.1 and 5 mM. This solution (total volume 1 ul) was injected into the round window niche of the left ear. Polyethylene glycol 400 with 10% DMSO was injected into the right ear as a control. Gelfoam was placed on the niche to maintain the solution, and the wound was closed. […]

[2] = test system: Axin2; test: qRT-PCR of Axin2 in adult cochlea after noise damage and drug treatment; format: in vivo, mouse; settings: 3 days after drug treatment of noise-damaged animals, p<0.05
Protocol: as §1, §2

[3] = test system: active β-catenin; test: Western blot for active β-catenin in differentiating LCPs; format: cell-based, mouse; settings: western blot after 4 days of differentiation, relative to untreated control
Protocol: Western blot analysis. For protein collection, cells were washed twice with PBS and then lysed by lysis buffer (20 mM HEPES, 400 mM NaCl, 1 mM EDTA, 0.1% NP-40 and 10% Glycerol) supplemented with HALT protease and phosphatase inhibitors (Thermo Fisher Scientific, Waltham, MA). Lysates were then centrifuged at 13,000 g for 15 min at 4° C., and each supernatant was collected. Protein concentration was determined using the Pierce BCA Protein Assay Kit (Pierce Biotechnology, Rockford, IL). Proteins within each lysate were separated by SDS-PAGE (Bio-Rad Laboratories, Inc., Hercules, CA) and transferred to polyvinylidene difluoride membranes. After incubation with primary antibody, membranes were washed with Tris-buffered saline with Tween 20 and exposed to an appropriate horseradish peroxidase-conjugated secondary antibody (Santa Cruz Biotechnology, Santa Cruz, CA); immunoblot signals were detected with Pierce ECL Western blotting substrate or ECL plus (Thermo Fisher Scientific, Waltham, MA).
Active canonical Wnt signaling is facilitated by the nuclear translocation of β-catenin, which binds with transcription factors of the Tcf/Lef family to activate transcription. To further validate our RNA-sequencing data, we proceeded to examine the levels of active β-catenin using western blot after pargyline treatment. […] We also analyzed Wnt activity in the treated cells using a Tcf/Lef reporter assay.

[4] = test system: Hes1; test: qRT-PCR of Hes1 in adult cochlea after noise damage and drug treatment; format: in vivo, mouse; settings: 3 days after drug treatment of noise-damaged animals
Protocol: as §1, §2

[5] = test system: Lgr5-expressing cochlear progenitors cells (LCPs); test: Proliferation of Lgr5+ cochlear progenitors (LCPs) in organoid culture; format: cell-based, mouse; settings: first 10 days in culture, Lgr5-nGFP mice cells, combined with CHIR99021
Protocol: Isolation and expansion of inner ear Lgr5+ cells. A recently published protocol was used to derive organoids from inner ear stem cells [also referred to as Lgr5+ cochlear progenitors (LCPs) (McLean et al., 2017). Briefly, the organ of Corti was dissected from neonatal mice (postnatal days 2-5) in Hank's balanced salt solution and treated with Cell Recovery Solution (Corning) for 1 hour. The cochlear epithelium was then peeled from the underlying mesenchyme, collected and treated with TrypleE for 20 minutes at 37° C. The single cells were mechanically triturated, filtered ([…] cell strainer) and suspended in a Matrigel (Corning) dome for 3D culture. The cells were seeded in a 24-well plate, specifically at one cochlea per well of a 24-well plate.
For the drug screening experiments, the expanded cells were passaged into a 96 well plate to test varying drug combinations. All experiments were done in triplicate at minimum. Atoh1-nGFP cells were quantified after 10 days in culture. The cell colonies were incubated in Cell Recovery Solution for 1 hour and dissociated into single cells using TrypleE. The total cell number and percentage of GFP+ cells were quantified using fluorescence activated cell sorting (FACS).
We screened a collection of Lsd1 inhibitors over the first 10 days in culture (FIGS. 9A and 9B) to examine their effect on proliferation of LCPs (FIGS. 9C and 9D). […]

Row | SMILES | Atoh1 mRNA level [1] | Axin2 mRNA level [2] | active β-catenin, fold change [3] [fold] | Hes1 mRNA level [4] | proliferation of Lgr5 cells (LCP cell division) [5] [%]
1 | Cc1c[nH]c(-c2cnc(NCCNc3ccc(C#N)cn3)nc2-c2ccc(Cl)cc2Cl)n1 [CHIR99021] | significantly elevated | significantly higher levels | 2.95 | reduced levels | –
2 | CCCC(CCC)C(=O)O [valproic acid] | – | – | – | – | 63
